Common to all, as to assay type: cell-based
One series has as its system uninfected MT2 cells. In words: Compound cytotoxicity, XTT-based colorimetric assay. The settings on record: uninfected MT2 cells, day 4, XTT. A digest of the protocol: (§1)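 Run under the antiviral-assay protocol but without virus. Viability was read on day 4 and CC50 values were derived from the readout.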
Another series relates to recombinant NL4-3 virus. In words: HIV cell culture assay (antiviral activity, luciferase readout in MT-2 cells). A digest of the protocol: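 MT-2 cells infected for 4-5 days with NL4-3 reference virus carrying Renilla luciferase in place of part of nef, in presence of serial compound dilutions. Luciferase activity read with live-cell substrate. EC50 derived from median effect equation, slope parameter m.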

A short description of series [1]: Compound cytotoxicity, XTT-based colorimetric assay. Conditions: human; uninfected MT2 cells, day 4, XTT; read-out: CC50. Put shortly: as §1

The source of these data is patent US20210395262A1, “INHIBITORS OF HUMAN IMMUNODEFICIENCY VIRUS REPLICATION” (ViiV HEALTHCARE UK (NO.5) LIMITED, priority 2018, published 2021).

Molecules are shown by their SMILES. Read-outs that look alike come from different tables or passages of the source.

Molecule `C[C@@H]1CN(c2ccc3c(=O)n(-c4ccc(Cl)c5c(NS(C)(=O)=O)nn(CC(F)F)c45)c([C@H](Cc4cc(F)cc(F)c4)NC(=O)Cn4nc(C(F)F)c5c4C(F)(F)[C@@H]4C[C@H]54)nc3c2)C[C@H](C)O1` [Example 8, N—((S)-1-((3P)-3-(4-chloro-1-(2,2-difluoroethyl)-3-(methylsulfonamido)-1H-indazol-7-yl)-7-((2S,6R)-2,6-dimethylmorpholino)-4-oxo-3,4-dihydroquinazolin-2-yl)-2-(3,5-difluorophenyl)ethyl)-2-((3bS,4aR)-3-(difluoromethyl)-5,5-difluoro-3b,4,4a,5-tetrahydro-1H-cyclopropa[3,4]cyclopenta[1,2-c]pyrazol-1-yl)acetamide] gave a CC50 in the series on uninfected MT2 cells above 500 nM. Further, in the series with recombinant NL4-3 virus (MT-2 cells infected for 4-5 days with recombinant NL4-3 virus carrying Renilla luciferase, luciferase activity, read-out: EC50), the EC50 is 0.093 nM.
With `CCS(=O)(=O)Nc1nn(C)c2c(-n3c([C@H](Cc4cc(F)cc(F)c4)NC(=O)Cn4nc(C(F)F)c5c4C(F)(F)[C@@H]4C[C@H]54)nc4cc(N5CCOCC5)ccc4c3=O)ccc(Cl)c12` (atropisomer, axis not shown; (P)) [Example 65, N—((S)-1-((3P)-3-(4-chloro-3-(ethylsulfonamido)-1-methyl-1H-indazol-7-yl)-7-morpholino-4-oxo-3,4-dihydroquinazolin-2-yl)-2-(3,5-difluorophenyl)ethyl)-2-((3bS,4aR)-3-(difluoromethyl)-5,5-difluoro-3b,4,4a,5-tetrahydro-1H-cyclopropa[3,4]cyclopenta[1,2-c]pyrazol-1-yl)acetamide], the 50% cytotoxic concentration (CC50) at 4 days in series [1] was above 500 nM. Also, the concentration giving a half-maximal response (EC50) in the series on recombinant NL4-3 virus (Human immunodeficiency virus 1, NL43, MT2) was 0.051 nM.
